{"source": "patent US11104672B2", "about": "“Polymorphs” (Syngenta Participations AG, priority 2017, dated 2021)", "test": "Stability of polymorphs: stirring in dimethyl carbonate, crystals characterised by DSC and pXRD", "format": "physicochemical", "conditions": "stirred in 5 ml dimethyl carbonate for two days, crystals isolated, air dried", "experimental": "Powder X-ray diffraction analysis of solid material was carried out using the Bruker D8 powder diffractometer at room temperature and at relative humidities above 40%. Samples were mounted in Perspex sample holders and the samples flattened. The sample holder was rotated and X-rays were collected from 4° to 34° 2-theta, with a scan time of 25 to 30 minutes depending on the pattern intensity.\nDSC was carried out using a Mettler Toledo DSC1. A sample loading of around 5 mg was used and this was heated from 25° C. to 160° C. at a rate of 10° C./minute. The lid of the DSC crucible was pierced to allow the escape of any gas formed during the heating of the sample.\nA sample of the polymorph designated Form A(c) was stirred in 5 ml dimethyl carbonate for two days. The crystals were isolated, air dried and characterised by DSC and pXRD."}
{"smiles": "CCN1OC[C@@H](NC(=O)c2ccc(C3=NO[C@@](c4cc(Cl)c(F)c(Cl)c4)(C(F)(F)F)C3)cc2C)C1=O", "note": "[Form A(c)]", "values": [{"measurement": "Polymorphic stability (solid form found after stirring)", "result": "all of the Form A(c) had converted into Form (A)a"}]}
